Results: patent publication US20190365645A1, “DRUG DELIVERY ARTICLES FOR GRAM-LEVEL DOSING” (Massachusetts Institute of Technology, priority 2018, published 2019)

What was measured:
[1] = In vitro drug release from drug-vinylpolysiloxane pills/articles (simulated gastric fluid or water); format: physicochemical; conditions: for in vitro release from drug-VPS pills: SGF (isoniazid and rifampicin in water)
Description: Articles with a series of 30 pills were made so that there was 1 gram of doxycycline hyclate in 2 grams of vinylpolysiloxane. Pills were coated with either cellulose acetate butyrate (CAB) or with Eudragit RS PO. A control with no coatings was also made. The articles were immersed in simulated gastric fluid, and the cumulative release of doxycycline hyclate was measured for more than 26 days.
Thickness of coatings was tuned by increasing the spray volume.
Individual pills made of drug-VPS for doxycycline hyclate, isoniazid, ethambutol, pyrazinamide, moxifloxacin were used to evaluate long-term release kinetics in SGF. Pill formulations were incubated in a New Brunswick Innova 44 shaking incubator (Eppendorf) at 37° C. and 200 rpm in 50 mL of SGF for up to 28 days, with solution exchanges at specified time intervals. Drug concentrations were then analyzed using a High-Performance Liquid Chromatography (HPLC). Because of the lack of a validated HPLC method for evaluating isoniazid in SGF, water was used to study differences between isoniazid formulations. Three intact rifampicin devices were fabricated by loading 2 grams of drug into VPS pills. The devices were incubated in 500 mL of nanopure water for up to 26 days in a shaking incubator at 37° C. and 200 rpm, with media exchange at specified time intervals. […] The drug concentrations samples were then measured on an Infinite M200Pro (Tecan) reader (absorbance, 475 nm).
An Agilent 1260 Infinity II HPLC system (Agilent Technologies, Inc.) equipped with a Model 1260 quaternary pump, Model 1260 High Performance autosampler, Model 1260 thermostat, Model 1260 Infinity Thermostatted Column Compartment control module, and Model 1260 diode array detector was utilized. Data processing and analysis was performed using OpenLab CDS ChemStation (Agilent Technologies, Inc.). All solvents used were purchased from Sigma-Aldrich Corporation. For doxycycline hyclate, chromatographic isocratic separation was carried out on an Agilent 4.6×50 mm AdvanceBio RP-mAb SB-C8 analytical column with 3.5 μm particles, maintained at 55° C. The optimized mobile phase consisted of 20 mM dipotassium phosphate buffer and acetonitrile (pH 6 adjusted with triethylamine) [60:40 (v/v)] at a flow rate of 0.85 mL/min over a 4 min run time. The injection volume was 5 μl, and the selected ultraviolet (UV) detection wavelength was 293 nm.

[2] = reason water was used as release medium; cited from earlier work
[3] = pig, in vivo

With `NNC(=O)c1ccncc1` [isoniazid] the “in vitro release from drug-VPS pills” value [1] was “able to release”.
For `CO[C@H]1/C=C/O[C@@]2(C)Oc3c(C)c(O)c4c(O)c(c(/C=N/N5CCN(C)CC5)c(O)c4c3C2=O)NC(=O)/C(C)=C\C=C\[C@H](C)[C@H](O)[C@@H](C)[C@@H](O)[C@@H](C)[C@H](OC(C)=O)[C@@H]1C` [rifampicin], the stability in acid [2] is given as “rapidly degrades in acid” and the “duration of detectable serum concentrations” value [3] is given as “for a week”.
With `CC[C@@H](CO)NCCN[C@@H](CC)CO` [ethambutol] the “in vitro release from drug-VPS pills” value [1] was “able to release”.
For `NC(=O)c1cnccn1` [pyrazinamide], the “in vitro release from drug-VPS pills” value [1] was “able to release”.
For doxycycline hyclate, the “duration of drug release (cumulative release)” value ([1]; articles of 30 pills, 1 gram drug in 2 grams vinylpolysiloxane, simulated gastric fluid) was “more than 26 days”, the release kinetic profile ([1]; formulations coated with Eudragit RS 100, SGF) was “linear kinetic profile with limited burst release” and the “duration drug detectable in serum” value [3] was “at least 28 days”. For the same molecule, the “duration of sustained drug release, non-zero concentrations in the blood” value [3] was “at least 7 days”, the “time after which no drug was detectable in serum” value [3] was 3 ays and the “time to detectable serum concentrations” value [3] was at most 15 min.
